According to patent US20210045385A1, “PYRIDAZINONE-SUBSTITUTED KETOXIMES AS HERBICIDES” (FMC Corporation, priority 2018, published 2021):

Columns and labels:
Type in all cases: in vivo
[1] = system: sedge umbrella (small-flower umbrella sedge, Cyperus difformis); assay: Test D flooded paddy test, visual plant response rating; settings: 250 g ai/ha, scale 0 to 100 (0 no effect, 100 complete control), 13 to 15 d
Protocol: (§1) Plant species in the flooded paddy test selected from rice (Oryza sativa), sedge umbrella (small-flower umbrella sedge, Cyperus difformis) duck salad (Heteranthera limosa), and barnyardgrass (Echinochloa crus-galli) were grown to the 2-leaf stage for testing. At time of treatment, test pots were flooded to 3 cm above the soil surface, treated by application of test compounds directly to the paddy water, and then maintained at that water depth for the duration of the test. Treated plants and controls were maintained in a greenhouse for 13 to 15 d, after which time all species were compared to controls and visually evaluated. Plant response ratings, summarized in Table D, are based on a scale of 0 to 100 where 0 is no effect and 100 is complete control. A dash (-) response means no test result.

[2] = system: duck salad (Heteranthera limosa); assay: as above; settings: 250 g ai/ha, scale 0 to 100 (0 no effect, 100 complete control), 13 to 15 d
Protocol: as §1

[3] = system: barnyardgrass (Echinochloa crus-galli); assay: as above; settings: 250 g ai/ha, scale 0 to 100 (0 no effect, 100 complete control), 13 to 15 d
Protocol: as §1

rice (Oryza sativa) = assay: as above; settings: 250 g ai/ha, scale 0 to 100 (0 no effect, 100 complete control), 13 to 15 d
Protocol: as §1

[4] = system: galium (catchweed bedstraw, Galium aparine); assay: Test C postemergence, visual plant response rating
Summary of the method: (§2)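 Seeds sown in a loam–sand blend got a directed preemergence soil spray; postemergence plants (2–10 cm, one- to two-leaf stage) were sprayed with compound in a non-phytotoxic solvent plus surfactant. Injury was scored visually against untreated controls after about 10 d in a greenhouse on a 0–100 scale (100 = complete control).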

[5] = system: foxtail, giant (giant foxtail, Setaria faberi); assay: Test C postemergence, visual plant response rating
Summary of the method: as §2

[6] = system: blackgrass (Alopecurus myosuroides); assay: Test C postemergence, visual plant response rating
Summary of the method: as §2

[7] = system: Italian ryegrass (Lolium mutiflorum); assay: Test C postemergence, visual plant response rating
Summary of the method: as §2

[8] = system: barnyardgrass (Echinochloa crus-galli); assay: Test C postemergence, visual plant response rating
Summary of the method: as §2

corn (Zea mays) = assay: Test C postemergence, visual plant response rating
Summary of the method: as §2

kochia (Bassia scoparia) [9] = assay: Test C postemergence, visual plant response rating
Summary of the method: as §2

[10] = system: pigweed (Amaranthus retroflexus); assay: Test C postemergence, visual plant response rating
Summary of the method: as §2

[11] = system: ragweed (common ragweed, Ambrosia artemisiifolia); assay: Test C postemergence, visual plant response rating
Summary of the method: as §2

[12] = system: wheat (Triticum aestivum); assay: Test C postemergence, visual plant response rating
Summary of the method: as §2

[13] = system: foxtail, giant (giant foxtail, Setaria faberi); assay: Test C preemergence, visual plant response rating
Summary of the method: as §2

[14] = system: Italian ryegrass (Lolium mutiflorum); assay: Test C preemergence, visual plant response rating
Summary of the method: as §2

[15] = system: barnyardgrass (Echinochloa crus-galli); assay: Test C preemergence, visual plant response rating
Summary of the method: as §2

kochia (Bassia scoparia) [16] = assay: Test C preemergence, visual plant response rating
Summary of the method: as §2

[17] = system: pigweed (Amaranthus retroflexus); assay: Test C preemergence, visual plant response rating
Summary of the method: as §2

[18] = Test C, postemergence, 125 g ai/ha
[19] = Test C, 31 g ai/ha, 0 is no effect, 100 is complete control
[20] = Test C, 125 g ai/ha, 0 is no effect, 100 is complete control

Compound | Plant response rating, Sedge, Umbrella (Flood) [1] | Plant response rating, Ducksalad (Flood) [2] | Plant response rating, Barnyardgrass (Flood) [3] | Plant response rating, Rice (Flood) (rice (Oryza sativa)) | Galium plant response rating (0 to 100 scale) ([4]; Postemergence, 31 g ai/ha) | Galium plant response rating (0 to 100 scale) [4, 18] | Foxtail, Giant plant response rating (0 to 100 scale) ([5]; Postemergence, 31 g ai/ha) | Foxtail, Giant plant response rating (0 to 100 scale) [5, 18] | Blackgrass plant response rating (0 to 100 scale) ([6]; Postemergence, 31 g ai/ha) | Blackgrass plant response rating (0 to 100 scale) [6, 18] | Ryegrass, Italian plant response rating (0 to 100 scale) ([7]; Postemergence, 31 g ai/ha) | Ryegrass, Italian plant response rating (0 to 100 scale) [7, 18] | Barnyardgrass plant response rating (0 to 100 scale) ([8]; Postemergence, 31 g ai/ha) | Barnyardgrass plant response rating (0 to 100 scale) [8, 18] | Corn plant response rating (0 to 100 scale) (corn (Zea mays); Postemergence, 31 g ai/ha) | Corn plant response rating (0 to 100 scale) (corn (Zea mays); [18]) | Kochia plant response rating (0 to 100 scale) (kochia (Bassia scoparia) [9]; Postemergence, 31 g ai/ha) | Kochia plant response rating (0 to 100 scale) (kochia (Bassia scoparia) [9]; [18]) | Pigweed plant response rating (0 to 100 scale) ([10]; Postemergence, 31 g ai/ha) | Pigweed plant response rating (0 to 100 scale) [10, 18] | further results
Cc1nn(C)c(=O)c(/C(=N/OC(C)C)c2cc(Cl)cc(Cl)c2Cl)c1O [Compound 185] | 95 | 85 | 45 | 60 | 70 | 100 | 60 | 90 | 10 | 30 | 70 | 100 | 10 | 60 | 0 | 20 | 10 | 50 | 40 | 100 | Ragweed plant response rating (0 to 100 scale) ([11]; Postemergence, 31 g ai/ha): 90; Ragweed plant response rating (0 to 100 scale) [11, 18]: 100; Wheat plant response rating (0 to 100 scale) ([12]; Postemergence, 31 g ai/ha): 50; Wheat plant response rating (0 to 100 scale) [12, 18]: 80; Foxtail, Giant plant response rating (0 to 100 scale) ([13]; 125 g ai/ha): 100; Foxtail, Giant plant response rating (0 to 100 scale) [13, 19]: 90; Ryegrass, Italian plant response rating (0 to 100 scale) ([14]; 125 g ai/ha): 100; Ryegrass, Italian plant response rating (0 to 100 scale) [14, 19]: 10; Barnyardgrass plant response rating (0 to 100 scale) ([15]; 125 g ai/ha): 70; Barnyardgrass plant response rating (0 to 100 scale) [15, 19]: 0; Kochia plant response rating (0 to 100 scale) (kochia (Bassia scoparia) [16]; 125 g ai/ha): 50; Kochia plant response rating (0 to 100 scale) (kochia (Bassia scoparia) [16]; [19]): 0; Pigweed plant response rating (0 to 100 scale) ([17]; 125 g ai/ha): 100; Pigweed plant response rating (0 to 100 scale) [17, 19]: 70
C#CCO/N=C(\c1cc(Cl)cc(Cl)c1Cl)c1c(O)c(C)nn(C)c1=O [Compound 187] | 60 | 75 | 35 | 15 | 80 | 100 | 50 | 80 | 0 | 0 | 70 | 100 | 30 | 70 | 0 | 20 | 40 | 70 | 20 | 70 | Ragweed plant response rating (0 to 100 scale) ([11]; Postemergence, 31 g ai/ha): 90; Ragweed plant response rating (0 to 100 scale) [11, 18]: 100; Wheat plant response rating (0 to 100 scale) ([12]; Postemergence, 31 g ai/ha): 0; Wheat plant response rating (0 to 100 scale) [12, 18]: 50; Foxtail, Giant plant response rating (0 to 100 scale) ([13]; 125 g ai/ha): 100; Foxtail, Giant plant response rating (0 to 100 scale) [13, 19]: 80; Ryegrass, Italian plant response rating (0 to 100 scale) ([14]; 125 g ai/ha): 100; Ryegrass, Italian plant response rating (0 to 100 scale) [14, 19]: 40; Barnyardgrass plant response rating (0 to 100 scale) ([15]; 125 g ai/ha): 100; Barnyardgrass plant response rating (0 to 100 scale) [15, 19]: 70; Kochia plant response rating (0 to 100 scale) (kochia (Bassia scoparia) [16]; 125 g ai/ha): 90; Kochia plant response rating (0 to 100 scale) (kochia (Bassia scoparia) [16]; [19]): 0; Pigweed plant response rating (0 to 100 scale) ([17]; 125 g ai/ha): 90; Pigweed plant response rating (0 to 100 scale) [17, 19]: 60
CCO/N=C(\c1c(O)c(Cl)nn(C)c1=O)c1cc(Br)cc2ccccc12 [Compound 235] | 90 | 75 | 60 | 0 | 90 | 90 | 40 | 80 | 20 | 20 | 0 | 0 | 60 | 90 | 0 | 10 | 50 | 60 | 50 | 90 | Ragweed plant response rating (0 to 100 scale) ([11]; Postemergence, 31 g ai/ha): 100; Ragweed plant response rating (0 to 100 scale) [11, 18]: 100; Wheat plant response rating (0 to 100 scale) ([12]; Postemergence, 31 g ai/ha): 0; Wheat plant response rating (0 to 100 scale) [12, 18]: 0; Foxtail, Giant plant response rating (0 to 100 scale) [13, 19]: 30; Foxtail, Giant plant response rating (0 to 100 scale) [13, 20]: 90; Ryegrass, Italian plant response rating (0 to 100 scale) [14, 19]: 0; Ryegrass, Italian plant response rating (0 to 100 scale) [14, 20]: 0; Barnyardgrass plant response rating (0 to 100 scale) [15, 19]: 90; Barnyardgrass plant response rating (0 to 100 scale) [15, 20]: 100; Kochia plant response rating (0 to 100 scale) (kochia (Bassia scoparia) [16]; [19]): 0; Kochia plant response rating (0 to 100 scale) (kochia (Bassia scoparia) [16]; [20]): 70; Pigweed plant response rating (0 to 100 scale) [17, 19]: 100; Pigweed plant response rating (0 to 100 scale) [17, 20]: 90
